Experimental data from US12139481B2, “Compositions comprising macrocycle derivatives incorporating bridged macrocycles and methods of producing and using same” (Southwestern Oklahoma State University, priority 2015, dated 2024).
“And” between values parts separate entries of the source, which are not always exact repeats. Equal values may be shown once. Read-outs that look alike come from different tables or passages of the source.

Test system: Cryptococcus neoformans ATCC 90113
Test: Antimicrobial microdilution assay against Cryptococcus neoformans (modified CLSI/NCCLS, optical density)
Format: cell-based
Settings: for X more potent than Amphotericin B: C. neoformans, ratio of molar IC50 to Amphotericin B
Protocol: Summary: Various macrocyclic derivatives constructed in accordance with the presently disclosed and/or claimed inventive concept(s) were screened in vitro against Cryptococcus neoformans ATCC 90113 using a microdilution assay. The minimum fungicidal concentration (MFC), the lowest test concentration that kills the organism, was determined in broth media.
Antimicrobial assay: Cryptococcus neoformans ATCC 90113 were obtained from the American Type Culture Collection (Manassas, VA.). The susceptibility testing was performed using a modified version of the CLSI (formerly NCCLS) methods (see below), and optical density was used to monitor growth. Samples were serially diluted in 20% DMSO/saline and transferred in duplicate to 96-well flat bottom microplates. Microbial inocula were prepared by correcting the OD630 of cell/spore suspensions in incubation broth RPMI at pH 6.0 to afford final desired target inocula. Amphotericin B (“AMB;” ICN Biomedicals, OH) was used as drug control. The organism concentration was read at 630 nm using the Biotek Powerwave XS plate reader (Bio-Tek instruments, VT) prior to and after incubation. Minimum fungicidal concentrations were determined by removing 5 μL from each clear well, transferring to agar, and incubating until growth was seen. The MFC/MBC is defined as the lowest test concentration that kids the organism (allows no growth on agar).
References for NCCLS methods referenced above: 1 NCCLS. Reference method for broth dilution antifungal susceptibility testing of yeasts, Vol. 22. Approved standard, 2nd ed. Wayne: National Committee for Clinical Laboratory Standards; 2002: 1-51. 2 NCCLS. Reference method for broth dilution antifungal susceptibility testing of conidium forming filamentous fungi, Vol. 18. Proposed standard M38-P. Wayne: National Committee for Clinical Laboratory Standards; 1998: 1-39. 3 NCCLS. Methods for dilution antimicrobial susceptibility tests for bacteria that grow aerobically, Vol. 20. NCCLS Document M7-A5. Wayne: National Committee for Clinical Laboratory Standards; 2000: 1-58.
The term “IC50” as used herein will be understood to refer to a test concentration in mol/L that affords 50% inhibition of the microbe relative to negative and positive controls. […] The abbreviation “MFC” as used herein will be understood to refer to a minimum fungicidal concentration, or the lowest test concentration in mol/L that kills the organism. All IC50s are calculated using the XLfit® fit curve fitting software (ID Business Solutions Ltd, Guildford, Surrey, UK).
General Experimental Procedures. All organisms were obtained from the American Type Culture Collection (Manassas, VA) and include the fungi Candida albicans ATCC 90028, C. glabrata ATCC 90030, C. krusei ATCC 6258, and Cryptococcus neoformans ATCC 90113, and the bacteria Staphylococcus aureus ATCC 29213 and methicillin-resistant S. aureus ATCC 33591 (MRS). All organisms were tested using modified versions of the CLSI (formerly NCCLS) methods. For all organisms, optical density was used to monitor growth (NCCLS, Reference Method for Broth Dilution Antifungal Susceptibility Testing of Yeasts; Approved Standard M27-A2. National Committee on Clinical Laboratory Standards, 2002 22 (15); and NCCLS, Methods for Dilution Antimicrobial Susceptibility Tests for Bacteria that Grow Aerobically; Approved Standard, Seventh Edition M7-A7. National Committee on Clinical Laboratory Standards, 2006. 26(2)).
Samples (dissolved in DMSO) were serially-diluted in 20% DMSO/saline and transferred (10 μL) in duplicate to 96 well flat bottom microplates.

[1] = in vitro, C. neoformans ATCC 90113
[2] = in vitro, C. neoformans ATCC 90113, read-out: C. neoformans IC50 (mol/L)

Molecule | X more potent than Amphotericin B | C. neoformans IC50 [1] | IC50 [2] | IC50 (read-out: IC50 against C. neoformans)
CC(=O)[O-].CC(=O)[O-].O=[N+]([O-])c1ccc(Cn2c(CN3CCNCCN4CCN(CC4)CC3)nc3ccccc32)cc1.[Ni+2] [SJA232, [Ni(SB-BINO2-cyclen)(OAc)2]] | 0.02 | 5.070 µg/mL | 10.9 µM | 
CC(=O)[O-].CN1CCN2CCN(CC1)CCN(Cc1cc(Cl)nc(Cl)c1)CC2.F[P-](F)(F)(F)(F)F.[Co+2] [OB118, [Co(Me1dcp1-CB-cyclen)(OAc)]PF6] | 0.03 | 6.050 µg/mL | 9.52 µM | 
CC(=O)[O-].CC(=O)[O-].F[P-](F)(F)(F)(F)F.F[P-](F)(F)(F)(F)F.O.[Co+2].[Co+2].c1cc(CN2CCNCCCN3CCN(CC3)CC2)cc(CN2CCNCCCN3CCN(CC3)CC2)c1 [OB55, [Co2(m-SB-Homocyclens)(OAc)2][PF6]2•H2O] | 0.05 | 5.120 µg/mL | 4.78 µM | 
[Zn2(m-SB-cyclam-cyclen)(OAc)2][PF6]2•3.3H2O [CMB035] | 0.33 | ≤ 0.800 µg/mL | 0.711 µM | 
CC(=O)[O-].CN1CCCN2CCN(CCCN(Cc3ccccc3)CC2)CC1.F[P-](F)(F)(F)(F)F.[Co+2] [TRH16, [Co(Bn1Me1Bcyclam)(OAc)]PF6] | 0.02 | 9.190 µg/mL | 15.5 µM | 
[Mn(Py-SB-Cyclam)Cl]PF6•3H2O [ADS17] | 0.03 | 5.220 µg/mL | 8.6 µM | 
CC(=O)[O-].CC(=O)[O-].CC(=O)[O-].F[P-](F)(F)(F)(F)F.F[P-](F)(F)(F)(F)F.F[P-](F)(F)(F)(F)F.[Co+3].[Co+3].c1cc(CN2CCCN3CCNCCCN(CC3)CC2)ccc1CN1CCCN2CCNCCCN(CC2)CC1 [TJH414B, [Co2(H2-p-CB-cyclams)(OAc)3][PF6]3] | 1.31 | 0.234 µg/mL | 0.182 µM | 
CC(=O)[O-].CN1CCN2CCN(CC1)CCN(Cc1ccccc1)CC2.F[P-](F)(F)(F)(F)F.F[P-](F)(F)(F)(F)F.[Co+3] [TRH15, [Co(Bn1Me1Bcyclen)(OAc)][PF6]2] | 0.21 | ≤ 0.800 µg/mL | 1.13 µM | 
CN1CCN2CCN(CC1)CCN(Cc1ccccn1)CC2.[Cl-].[Cl-].[Mn+2] [KRW37, [Mn(pic1Me1-CB-Cyclen)Cl]Cl] | 0.03 | 3.076 µg/mL | 7.17 µM | 
O=[N+]([O-])c1ccc(Cn2c(CN3CCNCCN4CCN(CC4)CC3)nc3ccccc32)cc1 [SJA229, SB-BINO2-cyclen] | 0.06 | 1.890 µg/mL | 4.08 µM | 
[Cu2(p-CB-Homocyclens)(OAc)2][PF6]2 [ANC011] | 0.06 | 4.190 µg/mL | 3.85 µM | 
c1cc(CN2CCNCCCN3CCN(CC3)CC2)cc(CN2CCNCCCN3CCN(CC3)CC2)c1 [OB46, m-SB-Homocyclens] | 0.03 | 4.850 µg/mL | 9.21 µM | 
[Zn2(m-CB-Homocyclens)(OAc)0.5][PF6]3.5 [CDG037] | 0.18 | 1.620 µg/mL | 1.32 µM | 
CC(=O)[O-].CC(=O)[O-].F[P-](F)(F)(F)(F)F.F[P-](F)(F)(F)(F)F.O.O.O.O.O.[Cu+2].[Cu+2].c1cc(CN2CCCN3CCNCCCN(CC3)CC2)ccc1CN1CCCN2CCNCCCN(CC2)CC1 [TJH416B, [Cu2(H2-p-CB-cyclams)(OAc)2][PF6]2•5H2O] | 0.09 | 3.030 µg/mL | 2.57 µM | 
[Fe(Py-SB-Cyclam)Cl]PF6 [ADS18C] | 0.01 | 18.540 µg/mL | 33.5 µM | 
C1CNCCN2CCCNCCN(C1)CCC2.O.[Cl-].[Cl-].[Cl-].[Fe+3] [SLK36, Fe(H2PBCyclam)Cl3•H2O] | 0.03 | 3.330 µg/mL | 7.92 µM | 

Molecule | X more potent than Amphotericin B | C. neoformans IC50 [1] | IC50 [2] | IC50 (read-out: IC50 against C. neoformans)
Clc1ccc2c(N3CCNCCN(c4ccnc5cc(Cl)ccc45)CCNCC3)ccnc2c1.[Cl-].[Cl-].[Mn+2] [K-PAA2-0004-P8-TJH410, {[Mn(4,10-bis(7-chloroquinoline)cyclen]Cl2}] | 0.04 | 4.123 µg/mL | 6.64 µM | 
[Co(Me1Py1-CB-Cyclam)Cl]PF6 [DGJ012] | 0.03 | 4.730 µg/mL | 8.29 µM | 
[Zn(Me1-SB-Cyclam)(C2H3O2)]PF6 [DLM32] | 0.01 | 17.280 µg/mL | 33.9 µM | 
C1CN2CCNCCN(CCN1)CC2.CC(=O)[O-].F[P-](F)(F)(F)(F)F.[Co+2] [ANC27A, [Co(H2Bcyclen)(OAc)]PF6] | 0.02 | 5.030 µg/mL | 10.9 µM | 
CN1CCN2CCN(CC1)CCN(Cc1nc3ccccc3[nH]1)CC2 [SJA220, CB-BI-cyclen] | 0.02 | 5.160 µg/mL | 15.1 µM | 
C1CNCCN2CCCNCCN(C1)CC2.CC(=O)[O-].F[P-](F)(F)(F)(F)F.[Co+2] [ANC25, [Co(H2Bcyclam)(OAc)]PF6] | 0.03 | 4.360 µg/mL | 8.91 µM | 
c1ccc2[nH]c(CN3CCNCCN4CCN(CC4)CC3)nc2c1 [SJA219, SB-BI-cyclen] | 0.01 | 5.780 µg/mL | 17.6 µM | 
CC(=O)[O-].CC(=O)[O-].CN1CCCN2CCN(CCCN(Cc3ccc(CN4CCCN5CCN(C)CCCN(CC5)CC4)cc3)CC2)CC1.F[P-](F)(F)(F)(F)F.F[P-](F)(F)(F)(F)F.[Co+2].[Co+2] [KS40, [Co2(p-CB-cyclams)(OAc)2](PF6)2] | 13 and 13.21 | 0.020 µg/mL | ≤ 0.018 µM | < 0.018 µM
[Cu2(m-SB-cyclam-cyclen)(OAc)][PF6]3•2H2O [CMB034] | 0.35 | ≤ 0.800 µg/mL | 0.676 µM | 
CC(=O)[O-].CC(=O)[O-].CN1CCN2CCN(CC1)CCN(Cc1nc3ccccc3[nH]1)CC2.[Zn+2] [SJA225, [Zn(CB-BI-cyclen)(OAc)2]] | 0.01 | 5.690 µg/mL |  | 
CN1CCCN2CCN(C)CCN(CC1)CC2.F[P-](F)(F)(F)(F)F.[Cl-].[Cl-].[Co+3] [DGJ031, [Co(B13N4)Cl2]PF6] | 0.02 | 4.980 µg/mL | 9.67 µM | 
Ni(Py-SB-Cyclam)Cl2•3H2O [ADS20] | 0.01 | 18.590 µg/mL | 37.1 µM | 
[Cl-].[Cl-].[Zn+2].c1ccc2[nH]c(CN3CCNCCN4CCN(CC4)CC3)nc2c1 [SJA222, [Zn(SB-BI-cyclen)(Cl)2]] | 0.03 | 2.610 µg/mL |  | 
m-CB-cyclam-cyclen [DGJ036] | 0.02 | 5.800 µg/mL | 10.5 µM | 
F[P-](F)(F)(F)(F)F.F[P-](F)(F)(F)(F)F.F[P-](F)(F)(F)(F)F.F[P-](F)(F)(F)(F)F.O.O.[Cu+2].[Cu+2].c1cc(CN2CCNCCCN3CCN(CC3)CC2)ccc1CN1CCNCCCN2CCN(CC2)CC1 [OB49, [Cu2(p-SB-Homocyclens)][PF6]4•2H2O] | 0.38 | ≤ 0.800 µg/mL | 0.63 µM | 
